In patent US20220289685A1, “ANTIMALARIAL HEXAHYDROPYRIMIDINE ANALOGUES” (UCB BIOPHARMA SRL, priority 2019, published 2022) one finds IC50 data, which are given here for 16 compounds.

Where a name gives a salt, the structure may show the parent alone.

The subject of the assay is Plasmodium falciparum 3D7 strain. Description: P. falciparum 3D7 asexual blood stage assay (SYBR green readout). It counts as cell-based. The settings on record: Plasmodium falciparum, 3D7, Erythrocyte, 72 h. The method, boiled down: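 P. falciparum 3D7 in A+ erythrocytes (5% haematocrit, 0.5% parasitaemia) exposed 72 h at 37 °C under 1% O2/3% CO2 to 20-point 1.5-fold titrations, 50,000–15 nM in 0.5% DMSO. SYBR green lysis overnight, fluorescence 485/528 nm; normalized to mefloquine and DMSO, EC50 from biphasic two-site fit.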
With `C[C@@H]1C[C@H](N2C(=N)NC(C)(c3cccc(NC(=O)c4ccc(Cl)cc4F)c3Cl)CC2=O)CCO1` (relative stereo) [Example 67, 4-Chloro-N-(2-chloro-3-{(4S)-2-imino-4-methyl-1-[(2R*,4R*)-2-methyltetrahydropyran-4-yl]-6-oxo-hexahydropyrimidin-4-yl}phenyl)-2-fluorobenzamide hydrochloride], the midpoint of inhibition, the IC50, lay at 26 nM.
The figure for `COc1cncc(C(=O)Nc2cccc([C@]3(C)CC(=O)N([C@@H]4CCO[C@H](C)C4)C(=N)N3)c2Cl)n1` (relative stereo) [Example 68, N-(2-Chloro-3-{(4S)-2-imino-4-methyl-1-[(2R*,4R*)-2-methyl-tetrahydropyran-4-yl]-6-oxo-hexahydropyrimidin-4-yl}phenyl)-6-methoxypyrazine-2-carboxamide hydrochloride] is 11 nM; for `C[C@@H]1C[C@H](N2C(=N)N[C@](C)(c3cccc(NC(=O)c4cc(Cl)c(F)cc4F)c3Cl)CC2=O)CCO1` (relative stereo) [Example 69, 5-Chloro-N-(2-chloro-3-{(4S)-2-imino-4-methyl-1-[(2R*,4R*)-2-methyltetrahydropyran-4-yl]-6-oxo-hexahydropyrimidin-4-yl}phenyl)-2,4-difluorobenzamide hydrochloride] it is 25 nM.
With `C[C@@H]1C[C@H](N2C(=N)N[C@](C)(c3cccc(NC(=O)c4cncc(C(F)(F)F)c4)c3Cl)CC2=O)CCO1` (relative stereo) [Example 70, N-(2-Chloro-3-{(4S)-2-imino-4-methyl-1-[(2R*,4R*)-2-methyl-tetrahydropyran-4-yl]-6-oxo-hexahydropyrimidin-4-yl}phenyl)-5-(trifluoromethyl)pyridine-3-carboxamide hydrochloride], the midpoint of inhibition, the IC50, lay at 36 nM.
The same measure for `C[C@@H]1C[C@H](N2C(=N)N[C@](C)(c3cccc(NC(=O)c4ccc(F)c(Cl)c4F)c3Cl)CC2=O)CCO1` (relative stereo) [Example 71, 3-Chloro-N-(2-chloro-3-{(4S)-2-imino-4-methyl-1-[(2R*,4R*)-2-methyltetrahydropyran-4-yl]-6-oxo-hexahydropyrimidin-4-yl}phenyl)-2,4-difluorobenzamide hydrochloride]: 26 nM; for `C[C@@H]1C[C@H](N2C(=N)N[C@](C)(c3cccc(NC(=O)c4cccc(C#N)n4)c3Cl)CC2=O)CCO1` (relative stereo) [Example 72, N-(2-Chloro-3-{(4S)-2-imino-4-methyl-1-[(2R*,4R*)-2-methyl-tetrahydropyran-4-yl]-6-oxo-hexahydropyrimidin-4-yl}phenyl)-6-cyanopyridine-2-carboxamide hydrochloride]: 14 nM.
On to `C[C@@H]1C[C@H](N2C(=N)N[C@](C)(c3cccc(NC(=O)c4cccc(C#N)c4F)c3Cl)CC2=O)CCO1` (relative stereo) [Example 73, N-(2-Chloro-3-{(4S)-2-imino-4-methyl-1-[(2R*,4R*)-2-methyl-tetrahydropyran-4-yl]-6-oxo-hexahydropyrimidin-4-yl}phenyl)-3-cyano-2-fluorobenzamide hydrochloride], for which 6 nM corresponded to half-maximal inhibition (IC50).
As to `C[C@@H]1C[C@H](N2C(=N)N[C@](C)(c3cccc(NC(=O)c4cncc(C#N)c4)c3Cl)CC2=O)CCO1` (relative stereo) [Example 74, N-(2-Chloro-3-{(4S)-2-imino-4-methyl-1-[(2R*,4R*)-2-methyl-tetrahydropyran-4-yl]-6-oxo-hexahydropyrimidin-4-yl}phenyl)-5-cyanopyridine-3-carboxamide hydrochloride], the midpoint of inhibition, the IC50, lay at 109 nM.
For the compound `C[C@@H]1C[C@H](N2C(=N)N[C@](C)(c3cccc(NC(=O)c4cc(C#N)ccn4)c3Cl)CC2=O)CCO1` (relative stereo) [Example 75, N-(2-Chloro-3-{(4S)-2-imino-4-methyl-1-[(2R*,4R*)-2-methyl-tetrahydropyran-4-yl]-6-oxo-hexahydropyrimidin-4-yl}phenyl)-4-cyanopyridine-2-carboxamide hydrochloride], 20 nM corresponded to half-maximal inhibition (IC50).
Compound `C[C@@H]1C[C@H](N2C(=N)N[C@](C)(c3cccc(NC(=O)c4cc(C#N)ccc4F)c3Cl)CC2=O)CCO1` (relative stereo) [Example 76, N-(2-Chloro-3-{(4S)-2-imino-4-methyl-1-{(2R*,4R*)-2-methyl-tetrahydropyran-4-yl]-6-oxo-hexahydropyrimidin-4-yl}phenyl)-5-cyano-2-fluorobenzamide hydrochloride] yielded an IC50 of 11 nM.
The compound `C[C@@H]1C[C@H](N2C(=N)N[C@](C)(c3cccc(NC(=O)c4cc(Cl)cc(C#N)c4)c3Cl)CC2=O)CCO1` (relative stereo) [Example 77, 3-Chloro-N-(2-chloro-3-{(4S)-2-imino-4-methyl-1-[(2R*,4R*)-2-methyltetrahydropyran-4-yl]-6-oxo-hexahydropyrimidin-4-yl}phenyl)-5-cyanobenzamide hydrochloride] came in with an IC50 of 7 nM.
Turning to `Cc1ccnc(C(=O)Nc2cccc([C@]3(C)CC(=O)N([C@@H]4CCO[C@H](C)C4)C(=N)N3)c2Cl)n1` (relative stereo) [Example 78, N-(2-Chloro-3-{(4S)-2-imino-4-methyl-1-[(2R*,4R*)-2-methyl-tetrahydropyran-4-yl]-6-oxo-hexahydropyrimidin-4-yl}phenyl)-4-methylpyrimidine-2-carboxamide hydrochloride], the concentration for half-maximal inhibition (IC50) was 27 nM.
`COc1ccc2ccccc2c1C(=O)Nc1cccc([C@]2(C)CC(=O)N([C@@H]3CCO[C@H](C)C3)C(=N)N2)c1Cl` (relative stereo) [Example 79, N-(2-Chloro-3-{(4S)-2-imino-4-methyl-1-[(2R*,4R*)-2-methyl-tetrahydropyran-4-yl]-6-oxo-hexahydropyrimidin-4-yl]phenyl)-2-methoxynaphthalene-1-carboxamide trifluoroacetic acid salt] had an IC50 of 61 nM.
Consider `C[C@@H]1C[C@H](N2C(=N)N[C@](C)(c3cccc(NC(=O)c4ccc(F)cc4C(F)(F)F)c3Cl)CC2=O)CCO1` (relative stereo) [Example 80, N-(2-Chloro-3-{(4S)-2-imino-4-methyl-1-[(2R*,4R*)-2-methyl-tetrahydropyran-4-yl]-6-oxo-hexahydropyrimidin-4-yl}phenyl)-4-fluoro-2-(trifluoromethyl)-benzamide trifluoroacetic acid salt], for which the IC50 was found to be 61 nM.
For the compound `C[C@@H]1C[C@H](N2C(=N)N[C@](C)(c3cccc(NC(=O)c4ccccc4S(C)(=O)=O)c3Cl)CC2=O)CCO1` (relative stereo) [Example 81, N-(2-Chloro-3-{(4S)-2-imino-4-methyl-1-[(2R*,4R*)-2-methyl-tetrahydropyran-4-yl]-6-oxo-hexahydropyrimidin-4-yl}phenyl)-2-(methylsulfonyl)benzamide trifluoroacetic acid salt], the IC50 worked out at 182 nM.
Compound `Cc1ccncc1C(=O)Nc1cccc([C@]2(C)CC(=O)N([C@@H]3CCO[C@H](C)C3)C(=N)N2)c1Cl` (relative stereo) [Example 82, N-(2-Chloro-3-{(4S)-2-imino-4-methyl-1-[(2R*,4R*)-2-methyl-tetrahydropyran-4-yl]-6-oxo-hexahydropyrimidin-4-yl}phenyl)-4-methylpyridine-3-carboxamide trifluoroacetic acid salt] had an IC50 of 35 nM.
